Measured values published in PubChem BioAssay AID2060489 (Molecular Pharmacology Branch, DTP, NCI, 2025).

Test system: 922993-354-T-J3-PDC complex spheroids, viability
Experiment: Anticancer human tumor 922993-354-T-J3-PDC patient-derived endometrial carcinoma cell line growth inhibition [GQUAD]
Conditions: for IC50: curve of first compound; for viability, T/C: stronger effect = lower value
Method in brief: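 Multi-cell-type spheroids of tumor cells with HUVEC and mesenchymal stem cells, treated with drug combinations. Concentrations descend in half-log steps from near clinical Cmax, or from 10 microM where Cmax is unknown; viability read-out.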

[1] = second compound 0.0316 µM, first compound 0.0316 µM
[2] = second compound 0.0316 µM, first compound 0.1 µM
[3] = second compound 0.0316 µM, first compound 0.316 µM
[4] = second compound 0.0316 µM, first compound 1 µM
[5] = second compound 0.0316 µM, first compound 3.16 µM
[6] = second compound 0.0316 µM, first compound 10 µM
[7] = second compound 0.1 µM, first compound 0.0316 µM
[8] = second compound 0.1 µM, first compound 0.1 µM
[9] = second compound 0.1 µM, first compound 0.316 µM
[10] = second compound 0.1 µM, first compound 1 µM
[11] = second compound 0.1 µM, first compound 3.16 µM
[12] = second compound 0.1 µM, first compound 10 µM
[13] = second compound 0.316 µM, first compound 0.0316 µM
[14] = second compound 0.316 µM, first compound 0.1 µM
[15] = second compound 0.316 µM, first compound 0.316 µM
[16] = second compound 0.316 µM, first compound 1 µM
[17] = second compound 0.316 µM, first compound 3.16 µM
[18] = second compound 0.316 µM, first compound 10 µM
[19] = second compound 1 µM, first compound 0.0316 µM
[20] = second compound 1 µM, first compound 0.1 µM
[21] = second compound 1 µM, first compound 0.316 µM
[22] = second compound 1 µM, first compound 1 µM
[23] = second compound 1 µM, first compound 3.16 µM
[24] = second compound 1 µM, first compound 10 µM
[25] = second compound 3.16 µM, first compound 0.0316 µM
[26] = second compound 3.16 µM, first compound 0.1 µM
[27] = second compound 3.16 µM, first compound 0.316 µM
[28] = second compound 3.16 µM, first compound 1 µM
[29] = second compound 3.16 µM, first compound 3.16 µM
[30] = second compound 3.16 µM, first compound 10 µM
[31] = second compound 10 µM, first compound 0.0316 µM
[32] = second compound 10 µM, first compound 0.1 µM
[33] = second compound 10 µM, first compound 0.316 µM
[34] = second compound 10 µM, first compound 1 µM
[35] = second compound 10 µM, first compound 3.16 µM
[36] = second compound 10 µM, first compound 10 µM
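Also: spheroids exposed to compounds for seven days.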
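For viability, T/C in this document: 100% = DMSO vehicle control viability.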

O=c1[nH]cc(F)c(=O)[nH]1 + Cc1cnc(CNC(=O)c2c(=O)c3ccc(N4CCCN(C)CC4)nc3n3c2sc2ccccc23)cn1
IC50 (second compound 0.0316 µM): > 10 µM | IC50 (second compound 0.1 µM): > 10 µM | IC50 (second compound 0.316 µM): < 0.0316 µM | IC50 (second compound 1 µM): < 0.0316 µM | IC50 (second compound 3.16 µM): < 0.0316 µM | IC50 (second compound 10 µM): < 0.0316 µM | viability, T/C [1]: 85.8% | viability, T/C [2]: 69.8% | viability, T/C [3]: 79.3% | viability, T/C [4]: 96.3% | viability, T/C [5]: 82.1% | viability, T/C [6]: 57.4% | viability, T/C [7]: 65.7% | viability, T/C [8]: 49.3% | viability, T/C [9]: 49.7% | viability, T/C [10]: 61.5% | viability, T/C [11]: 63.1% | viability, T/C [12]: 60.1% | viability, T/C [13]: 50.6% | viability, T/C [14]: 47.1% | viability, T/C [15]: 45.5% | viability, T/C [16]: 42.8% | viability, T/C [17]: 48.7% | viability, T/C [18]: 49.3% | viability, T/C [19]: 54.1% | viability, T/C [20]: 38.2% | viability, T/C [21]: 40.8% | viability, T/C [22]: 42.6% | viability, T/C [23]: 50% | viability, T/C [24]: 44.9% | viability, T/C [25]: 46% | viability, T/C [26]: 50.6% | viability, T/C [27]: 43.3% | viability, T/C [28]: 53.6% | viability, T/C [29]: 51.5% | viability, T/C [30]: 46.4% | viability, T/C [31]: 44.2% | viability, T/C [32]: 44% | viability, T/C [33]: 43.7% | viability, T/C [34]: 37.2% | viability, T/C [35]: 47.4% | viability, T/C [36]: 46.1%

C#Cc1c(F)ccc2cc(O)cc(-c3ncc4c(N5CC6CCC(C5)N6)nc(OCC56CCCN5CC(F)C6)nc4c3F)c12 (stereo not drawn) + Cc1cnc(CNC(=O)c2c(=O)c3ccc(N4CCCN(C)CC4)nc3n3c2sc2ccccc23)cn1
IC50 (second compound 0.0316 µM): > 10 µM | IC50 (second compound 0.1 µM): > 10 µM | IC50 (second compound 0.316 µM): 0.0894 µM | IC50 (second compound 1 µM): < 0.0316 µM | IC50 (second compound 3.16 µM): < 0.0316 µM | IC50 (second compound 10 µM): < 0.0316 µM | viability, T/C [1]: 75.3% | viability, T/C [2]: 81.8% | viability, T/C [3]: 74.4% | viability, T/C [4]: 70% | viability, T/C [5]: 86.9% | viability, T/C [6]: 56.8% | viability, T/C [7]: 64.3% | viability, T/C [8]: 70.2% | viability, T/C [9]: 56% | viability, T/C [10]: 51.6% | viability, T/C [11]: 54% | viability, T/C [12]: 61.1% | viability, T/C [13]: 61.9% | viability, T/C [14]: 51.4% | viability, T/C [15]: 42.5% | viability, T/C [16]: 37% | viability, T/C [17]: 41.2% | viability, T/C [18]: 50.3% | viability, T/C [19]: 42.1% | viability, T/C [20]: 45.2% | viability, T/C [21]: 38.4% | viability, T/C [22]: 36.2% | viability, T/C [23]: 50.2% | viability, T/C [24]: 44.5% | viability, T/C [25]: 46.6% | viability, T/C [26]: 43.8% | viability, T/C [27]: 42.2% | viability, T/C [28]: 44.6% | viability, T/C [29]: 45.9% | viability, T/C [30]: 42.5% | viability, T/C [31]: 40.5% | viability, T/C [32]: 38.7% | viability, T/C [33]: 39.3% | viability, T/C [34]: 44.8% | viability, T/C [35]: 40.3% | viability, T/C [36]: 34.2%

COc1cccc2c1C(=O)c1c(O)c3c(c(O)c1C2=O)CC(O)(C(=O)CO)CC3OC1CC(N)C(O)C(C)O1 (stereo not drawn) + CN(C)c1ccc(Nc2c3ccc(NC(=O)CCN4CCCC4)cc3nc3cc(NC(=O)CCN4CCCC4)ccc23)cc1
IC50 (second compound 0.0316 µM): 1.66 µM | IC50 (second compound 0.1 µM): 2.79 µM | IC50 (second compound 0.316 µM): 4.11 µM | IC50 (second compound 1 µM): 5.55 µM | IC50 (second compound 3.16 µM): 5.92 µM | IC50 (second compound 10 µM): 6.47 µM | viability, T/C [1]: 91.1% | viability, T/C [2]: 98% | viability, T/C [3]: 108% | viability, T/C [4]: 61.5% | viability, T/C [5]: 45.6% | viability, T/C [6]: 25.1% | viability, T/C [7]: 103% | viability, T/C [8]: 85.5% | viability, T/C [9]: 90.6% | viability, T/C [10]: 87.8% | viability, T/C [11]: 45.4% | viability, T/C [12]: 34.1% | viability, T/C [13]: 94% | viability, T/C [14]: 94.8% | viability, T/C [15]: 67.3% | viability, T/C [16]: 78.5% | viability, T/C [17]: 55.7% | viability, T/C [18]: 31.9% | viability, T/C [19]: 92.4% | viability, T/C [20]: 85.6% | viability, T/C [21]: 76.3% | viability, T/C [22]: 73.9% | viability, T/C [23]: 78.7% | viability, T/C [24]: 20.8% | viability, T/C [25]: 103% | viability, T/C [26]: 98.4% | viability, T/C [27]: 104% | viability, T/C [28]: 86.5% | viability, T/C [29]: 81% | viability, T/C [30]: 26.4% | viability, T/C [31]: 112% | viability, T/C [32]: 120% | viability, T/C [33]: 93.4% | viability, T/C [34]: 97.6% | viability, T/C [35]: 80% | viability, T/C [36]: 32.6%

O=C(NO)c1cnc(N2CCN(S(=O)(=O)c3ccc4ccccc4c3)CC2)nc1 + Cc1cnc(CNC(=O)c2c(=O)c3ccc(N4CCCN(C)CC4)nc3n3c2sc2ccccc23)cn1
IC50 (second compound 0.0316 µM): 0.482 µM | IC50 (second compound 0.1 µM): 0.0846 µM | IC50 (second compound 0.316 µM): < 0.0316 µM | IC50 (second compound 1 µM): < 0.0316 µM | IC50 (second compound 3.16 µM): < 0.0316 µM | IC50 (second compound 10 µM): < 0.0316 µM | viability, T/C [1]: 80.3% | viability, T/C [2]: 85% | viability, T/C [3]: 59.2% | viability, T/C [4]: 30.6% | viability, T/C [5]: 5.35% | viability, T/C [6]: 0.97% | viability, T/C [7]: 63.8% | viability, T/C [8]: 47.5% | viability, T/C [9]: 32.4% | viability, T/C [10]: 20.5% | viability, T/C [11]: 8.63% | viability, T/C [12]: 1.81% | viability, T/C [13]: 46.4% | viability, T/C [14]: 32% | viability, T/C [15]: 36.2% | viability, T/C [16]: 21.2% | viability, T/C [17]: 11.2% | viability, T/C [18]: 2.24% | viability, T/C [19]: 44.3% | viability, T/C [20]: 45.7% | viability, T/C [21]: 28.4% | viability, T/C [22]: 12.4% | viability, T/C [23]: 5.24% | viability, T/C [24]: 0.22% | viability, T/C [25]: 42% | viability, T/C [26]: 36.8% | viability, T/C [27]: 24.9% | viability, T/C [28]: 4.62% | viability, T/C [29]: 0.18% | viability, T/C [30]: 0.17% | viability, T/C [31]: 38.7% | viability, T/C [32]: 25% | viability, T/C [33]: 14.2% | viability, T/C [34]: 0.2% | viability, T/C [35]: 0.21% | viability, T/C [36]: 0.22%
